The record followed here is ChEMBL document CHEMBL5357064 (ACS Med Chem Lett, 2024).

Assay [1] has as its target T1, Small conductance calcium-activated potassium channel protein 2 (Homo sapiens, UniProt Q9H2S1). The experiment in a line: Displacement of [125I]apamin from SK2 (unknown origin) expressed in HEK293 cells assessed as inhibition constant incubated for 1 hr by liquid scintillation counting analysis. It counts as cell-based.
Another assay is filed under the species Homo sapiens. The experiment in a line: Selectivity ratio of Ki for human SK3 to Ki for human SK2.
Assay [2] concerns the target Small conductance calcium-activated potassium channel protein 3 (Homo sapiens, UniProt Q9UGI6). The experiment in a line: Displacement of [125I]apamin from human SK3 expressed in HEK293 cells assessed as inhibition constant incubated for 1 hr by liquid scintillation counting analysis. Type of assay: cell-based.
Assay [3] has as its target T1, Small conductance calcium-activated potassium channel protein 2. The experiment in a line: Displacement of [125I]apamin from human SK2 expressed in HEK293 cells assessed as inhibition constant incubated for 1 hr by liquid scintillation counting analysis. Type of assay: cell-based.

T1 sequence (Q9H2S1 whole entry): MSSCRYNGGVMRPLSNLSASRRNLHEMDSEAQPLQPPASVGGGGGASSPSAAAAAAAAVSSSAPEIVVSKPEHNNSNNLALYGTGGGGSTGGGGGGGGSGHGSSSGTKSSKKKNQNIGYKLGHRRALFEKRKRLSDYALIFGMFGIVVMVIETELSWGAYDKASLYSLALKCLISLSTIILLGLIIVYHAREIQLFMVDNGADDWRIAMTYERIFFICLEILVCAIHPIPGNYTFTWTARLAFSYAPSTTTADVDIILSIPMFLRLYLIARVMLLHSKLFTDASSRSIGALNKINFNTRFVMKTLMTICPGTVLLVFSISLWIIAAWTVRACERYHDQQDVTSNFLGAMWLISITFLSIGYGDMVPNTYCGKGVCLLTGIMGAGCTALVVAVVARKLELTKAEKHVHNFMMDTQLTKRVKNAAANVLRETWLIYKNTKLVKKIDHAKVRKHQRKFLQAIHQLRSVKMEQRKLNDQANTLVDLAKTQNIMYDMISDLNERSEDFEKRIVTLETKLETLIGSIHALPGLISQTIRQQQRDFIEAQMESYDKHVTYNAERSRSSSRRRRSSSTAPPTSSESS
Small conductance calcium-activated potassium channel protein 3, sequence (Q9UGI6 whole entry): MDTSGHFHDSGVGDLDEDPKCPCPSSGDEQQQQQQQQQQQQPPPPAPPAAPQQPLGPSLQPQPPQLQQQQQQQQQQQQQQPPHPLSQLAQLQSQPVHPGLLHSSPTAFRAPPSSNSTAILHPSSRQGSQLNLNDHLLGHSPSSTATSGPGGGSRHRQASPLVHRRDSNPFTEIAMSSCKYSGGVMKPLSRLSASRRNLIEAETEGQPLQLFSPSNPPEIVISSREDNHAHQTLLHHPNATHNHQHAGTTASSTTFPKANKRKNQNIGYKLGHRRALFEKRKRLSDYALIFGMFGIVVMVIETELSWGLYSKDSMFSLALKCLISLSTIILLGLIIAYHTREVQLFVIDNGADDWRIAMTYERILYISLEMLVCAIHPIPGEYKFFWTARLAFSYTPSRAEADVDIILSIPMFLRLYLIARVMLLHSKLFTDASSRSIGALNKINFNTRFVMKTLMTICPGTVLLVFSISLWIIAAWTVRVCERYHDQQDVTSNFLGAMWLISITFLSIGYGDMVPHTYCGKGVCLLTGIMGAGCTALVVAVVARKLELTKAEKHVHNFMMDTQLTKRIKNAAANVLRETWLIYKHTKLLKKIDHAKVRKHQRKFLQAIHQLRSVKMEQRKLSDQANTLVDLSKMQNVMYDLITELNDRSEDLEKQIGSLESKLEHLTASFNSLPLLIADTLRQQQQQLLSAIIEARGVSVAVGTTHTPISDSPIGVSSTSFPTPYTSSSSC

As to `COc1cc2c(cc1OC)[C@H](CCC[C@H]1c3cc(OC)c(OC)cc3CCN1C)N(C)CC2`, the Ki in assay [1] is 0.277 µM.

On to `COc1cc2c3cc1Oc1c(OC)c(OC)cc4c1[C@@H](Cc1ccc(O)c(c1)Oc1ccc(cc1)C[C@@H]3N(C)CC2)N(C)CC4` [BERBAMINE], for which the Ratio Ki in the assay listed under Homo sapiens came to 2.17. Moreover, the inhibition constant (Ki) in assay [2] was 0.679 µM; in assay [3], 0.284 µM.
